Among the data in EP0185346A2, “Imidazo derivatives, their preparation and medicaments containing these compounds” (Dr. Karl Thomae GmbH, priority 1984, dated 1986) are change in vivo values, retold here.

SMILES strings stand for the structures.

For the experiment, the system named is despinalisierten Meerschweinchen. Kind of experiment: Positive inotropic effect in despinalised guinea pigs (LV-dp/dtmax, i.v. injection). Format: in vivo. As to conditions: Cavia porcellus, iv; 1 mg/kg i.v.; mean values, each substance tested in 3 despinalised guinea pigs; read-out: Zunahme in LV-dp/dtmax. From the text:
Bestimmung der positiv inotropen Wirkung an despinalisierten Meerschweinchen
Die Untersuchungen wurden an despinalisierten Meerschweinchen durchgeführt. Die Tiere wurden mit 50 % 02 + 50 % N2 beatmet. Der arterielle Blutdruck wurde in der rechten Arteria Carotis mit einem Bell and Howell Druckwandler (4-327-1) gemessen. Für die Erfassung der positiv inotropen Wirkung wurde mit einem Kathetertipmanometer (Millar PR-249) der Druck in dem linken Ventrikel (LV) gemessen. Mittels eines Differenzierers wurde LV-dp/dtmax gewonnen. Die zu untersuchenden Substanzen wurden in eine Vena jugularis injiziert. Als Lösungsmittel diente 0,9 % NaCl+Polydiol 200 (1:1).
Jede Substanz wurde an 3 Meerschweinchen überprüft. Die Dosen waren 0,1 - 3 mg/kg i.v.. Die nachfolgende Tabelle enthält die Mittelwerte bei 1 mg/kg i.v..
As to `CN(C)S(=O)(=O)c1ccc(-c2cn3ccc(=O)[nH]c3n2)cc1` [Substanz A], the change in vivo at 1 mg/kg is 32%. As for `COc1ccc(-c2cn3cc[nH]c(=O)c3n2)cc1` [Substanz B, 2-(4-Methoxy-phenyl)-7H-imidazo[1,2-a]pyrazin-8-on], the change in vivo at 1 mg/kg turned out to be 45%. On to `COc1ccc(-c2cn3c(=O)[nH]c(=O)[nH]c3n2)cc1` [Substanz C, 7-(4-Methoxy-phenyl)-1H,3H-imidazo[1,2-a][1.3.5]triazin-2,4-dion], for which the change in vivo at 1 mg/kg amounted to 86%. For the compound `COc1cc(OS(C)(=O)=O)ccc1-c1cn2ccc(=O)[nH]c2n1` [Substanz D, 2-(2-Methoxy-4-methylsulfonyloxy-phenyl)-8H-imidazo-[l,2-a]pyrimidin-7-on], the change in vivo at 1 mg/kg worked out at 63%. In the case of `COc1cc(C#N)ccc1-c1cn2ccc(=O)[nH]c2n1` [Substanz E, 2-(2-Methoxy-4-cyano-phenyl)-8H-imidazo[1,2-a]pyrimidin-7-on], the change in vivo at 1 mg/kg was found to be 44%. Consider `COc1cc(S(=O)(=O)N(C)C)ccc1-c1cn2ccc(=O)[nH]c2n1` [Substanz F, 2-(2-Methoxy-4-dimethylaminosulfonyl-phenyl)-8H-imidazo-[1,2-a]pyrimidin-7-on], for which the change in vivo at 1 mg/kg is 47%. As for `CNS(=O)(=O)c1ccc(-c2cn3ccc(=O)[nH]c3n2)c(OC)c1` [Substanz G, 2-(2-Methoxy-4-methylaminosulfonyl-phenyl)-8H-imidazo-[1,2-a]pyrimidin-7-on], the change in vivo at 1 mg/kg stood at 75%. `COc1cc(C(=O)N(C)C)ccc1-c1cn2ccc(=O)[nH]c2n1` [Substanz H, 2-(2-Methoxy-4-dimethylaminocarbonyl-phenyl)-8H-imidazo-[l,2-a]pyrimidin-7-on]: the change in vivo at 1 mg/kg was found to be 33%. The same measure for `COc1cc(OS(C)(=O)=O)ccc1-c1cn2cc[nH]c(=O)c2n1` [Substanz I, 2-(2-Methoxy-4-methylsulfonyloxy-phenyl)-7H-imidazo-[1,2-a]pyrazin-8-on]: 98%.
